Assay results: publication PMC5129256 (International Journal of Environmental Research and Public …, 2016)
“And” between values parts separate entries of the source, which are not always exact repeats. Equal values may be shown once. Read-outs that look alike come from different tables or passages of the source.

Key:
[1] = test system: human adenocarcinoma cell line HT-29; design: method as in PMID 14642818; settings: HT-29, 20 mM (or 0.04%); cited from earlier work
LMH cells [2] = settings: PrestoBlue; for Viability of LMH Cells (%) ±S.E.M.: 24 h
LMH cells [3] = test system: LMH cells
human skin fibroblasts = settings: MTS assay; cited from earlier work
in vitro = settings: chicken, LMH chicken liver hepatocellular carcinoma cells, Viability of LMH Cells (%) ± SD, MTT
laboratory mice = settings: mouse, in vivo; cited from earlier work

Question: For `N` [Ammonium], which effect on proliferation [1] is on record?
Answer: almost suppressed proliferation

Question: And the “Viability of LMH Cells (%) ±S.E.M.” value (LMH cells [2]; 0.004%)?
Answer: 99.7 ± 5.8%

Question: And the “Viability of LMH Cells (%) ±S.E.M.” value (LMH cells [2]; 0.008%)?
Answer: 99.0 ± 10.1%

Question: What about the “Viability of LMH Cells (%) ±S.E.M.” value (LMH cells [2]; 0.016%) of the same compound?
Answer: 100.2 ± 8.1%

Question: And the “Viability of LMH Cells (%) ±S.E.M.” value (LMH cells [2]; 0.063%)?
Answer: 51.1 ± 7.1 %

Question: And the “Viability of LMH Cells (%) ±S.E.M.” value (LMH cells [2]; 0.125%)?
Answer: 24.6 ± 6.3 %

Question: What about the “Viability of LMH Cells (%) ±S.E.M.” value (LMH cells [2]; 0.25%) of the same compound?
Answer: 5.7 ± 1.1 %

Question: And the “Viability of LMH Cells (%) ±S.E.M.” value (LMH cells [2]; 0.5%)?
Answer: 4.6 ± 0.6 %

Question: What about the “Viability of LMH Cells (%) ±S.E.M.” value (LMH cells [2]; 1.0%) of the same compound?
Answer: 4.7 ± 0.7 %

Question: What about the “IC50 (%)” value (LMH cells [2]; 24 h exposure, from dose-response curves) of the same compound?
Answer: 0.07%

Question: What about the “Viability of LMH Cells (%) ±S.E.M.” value (LMH cells [2]; […]) of the same compound?
Answer: 99.1 ± 4.9%

Question: And the “Viability of LMH Cells (%) ± SD” value (LMH cells [3]; MTT, 0.004%, 24 h)?
Answer: 97.6 ± 4.3%

Question: What about the “Viability of LMH Cells (%) ± SD” value (LMH cells [3]; MTT, 0.004%, 48 h) of the same compound?
Answer: 95.6 ± 2.9%

Question: What about the “Viability of LMH Cells (%) ± SD” value (LMH cells [3]; MTT, 0.004%, 72 h) of the same compound?
Answer: 101.9 ± 5.0%

Question: What about the “Viability of LMH Cells (%) ± SD” value (LMH cells [3]; MTT, 0.008%, 24 h) of the same compound?
Answer: 98.0 ± 3.0%

Question: What about the “Viability of LMH Cells (%) ± SD” value (LMH cells [3]; MTT, 0.008%, 48 h) of the same compound?
Answer: 96.8 ± 1.3%

Question: And the “Viability of LMH Cells (%) ± SD” value (LMH cells [3]; MTT, 0.008%, 72 h)?
Answer: 104.8 ± 2.6%

Question: What about the “Viability of LMH Cells (%) ± SD” value (LMH cells [3]; MTT, 0.016%, 24 h) of the same compound?
Answer: 93.3 ± 2.8%

Question: And the “Viability of LMH Cells (%) ± SD” value (LMH cells [3]; MTT, 0.016%, 48 h)?
Answer: 81.4 ± 5.2 %

Question: What about the “Viability of LMH Cells (%) ± SD” value (LMH cells [3]; MTT, 0.063%, 24 h) of the same compound?
Answer: 61.9 ± 2.0 %

Question: And the “Viability of LMH Cells (%) ± SD” value (LMH cells [3]; MTT, 0.063%, 48 h)?
Answer: 28.3 ± 1.3 %

Question: And the “Viability of LMH Cells (%) ± SD” value (LMH cells [3]; MTT, 0.063%, 72 h)?
Answer: 13.8 ± 1.2 %

Question: And the “Viability of LMH Cells (%) ± SD” value (LMH cells [3]; MTT, 0.125%, 24 h)?
Answer: 18.1 ± 0.8 %

Question: What about the “Viability of LMH Cells (%) ± SD” value (LMH cells [3]; MTT, 0.125%, 48 h) of the same compound?
Answer: 7.1 ± 0.8 %

Question: What about the “Viability of LMH Cells (%) ± SD” value (LMH cells [3]; MTT, 0.125%, 72 h) of the same compound?
Answer: 10.0 ± 1.3 %

Question: And the “Viability of LMH Cells (%) ± SD” value (LMH cells [3]; MTT, 0.25%, 24 h)?
Answer: 5.4 ± 0.1 %

Question: What about the “Viability of LMH Cells (%) ± SD” value (LMH cells [3]; MTT, 0.25%, 48 h) of the same compound?
Answer: 1.6 ± 0.2 %

Question: What about the “Viability of LMH Cells (%) ± SD” value (LMH cells [3]; MTT, 0.25%, 72 h) of the same compound?
Answer: 2.9 ± 0.1 %

Question: And the “Viability of LMH Cells (%) ± SD” value (LMH cells [3]; MTT, 0.5%, 24 h)?
Answer: 5.9 ± 0.2 %

Question: What about the “Viability of LMH Cells (%) ± SD” value (LMH cells [3]; MTT, 0.5%, 48 h) of the same compound?
Answer: 2.1 ± 0.2 %

Question: What about the “Viability of LMH Cells (%) ± SD” value (LMH cells [3]; MTT, 0.5%, 72 h) of the same compound?
Answer: 2.8 ± 0.2 %

Question: What about the “Viability of LMH Cells (%) ± SD” value (LMH cells [3]; MTT, 1.0%, 24 h) of the same compound?
Answer: 13.1 ± 0.1 %

Question: What about the “Viability of LMH Cells (%) ± SD” value (LMH cells [3]; MTT, 1.0%, 48 h) of the same compound?
Answer: 1.7 ± 0.2 %

Question: And the “Viability of LMH Cells (%) ± SD” value (LMH cells [3]; MTT, 1.0%, 72 h)?
Answer: 5.8 ± 0.1 %

Question: What about the “IC50 (%)” value (LMH cells [3]; MTT, 24 h exposure, from dose-response curves) of the same compound?
Answer: 0.08%

Question: What about the “IC50 (%)” value (LMH cells [3]; MTT, 48 h exposure, from dose-response curves) of the same compound?
Answer: 0.04%

Question: And the “IC50 (%)” value (LMH cells [3]; MTT, 72 h exposure, from dose-response curves)?
Answer: 0.02%

Question: And the “Viability of LMH Cells (%) ± SD” value (LMH cells [3]; MTT, […], 24 h)?
Answer: 96.4 ± 1.2%

Question: And the “Viability of LMH Cells (%) ± SD” value (LMH cells [3]; MTT, […], 48 h)?
Answer: 65.5 ± 4.0 %

Question: What about the “Viability of LMH Cells (%) ± SD” value (LMH cells [3]; MTT, […], 72 h) of the same compound?
Answer: 31.6 ± 2.1 %

Question: What about the IC50 (human skin fibroblasts) of the same compound?
Answer: 9.4 mM

Question: For `CCCC(=O)O` [Butyric acid], which viability at 24 h, 0.006 % (in vitro; 0.006%, 24 h) is on record?
Answer: 100 ± 0.7%

Question: And the viability at 72 h, 0.006 % (in vitro; 0.006%, 72 h)?
Answer: 98.2 ± 2.1%

Question: What about the viability at 24 h, 0.013 % (in vitro; 0.013%, 24 h) of the same compound?
Answer: 100 ± 0.4%

Question: What about the viability at 72 h, 0.013 % (in vitro; 0.013%, 72 h) of the same compound?
Answer: 95.7 ± 2.1%

Question: And the viability at 24 h, 0.025 % (in vitro; 0.025%, 24 h)?
Answer: 100 ± 0.3%

Question: And the viability at 72 h, 0.025 % (in vitro; 0.025%, 72 h)?
Answer: 86 ± 4.8%

Question: And the viability at 24 h, 0.063 % (in vitro; 0.063%, 24 h)?
Answer: 68.9 ± 1.4%

Question: And the viability at 72 h, 0.063 % (in vitro; 0.063%, 72 h)?
Answer: 66.5 ± 3.2%

Question: And the viability at 24 h, 0.125 % (in vitro; 0.125%, 24 h)?
Answer: 65 ± 0.8%

Question: And the viability at 72 h, 0.125 % (in vitro; 0.125%, 72 h)?
Answer: 46.4 ± 3.2%

Question: What about the viability at 24 h, 0.25 % (in vitro; 0.25%, 24 h) of the same compound?
Answer: 59.4 ± 1.3%

Question: And the viability at 72 h, 0.25 % (in vitro; 0.25%, 72 h)?
Answer: 31.1 ± 2%

Question: And the viability at 24 h, 0.5 % (in vitro; 0.5%, 24 h)?
Answer: 25.1 ± 0.7%

Question: What about the viability at 72 h, 0.5 % (in vitro; 0.5%, 72 h) of the same compound?
Answer: 7.6 ± 0.7%

Question: And the viability at 24 h, […] (in vitro; […], 24 h)?
Answer: 89.3 ± 2%

Question: What about the viability at 72 h, […] (in vitro; […], 72 h) of the same compound?
Answer: 67.2 ± 4.9%

Question: And the “IC50 (%)” value (LMH cells [3])?
Answer: 0.32% and 0.11%

Question: And the cytotoxicity (LMH cells [3]; MTT, 0.5%, 72 h)?
Answer: 92.4%

Question: And the dose-dependent inhibition reached (LMH cells [3]; MTT, 72 h exposure, concentrations above 0.0125%)?
Answer: 92%

Question: With `CNC` [Dimethylamine] as the compound, how does the “RD50 (concentration which reduces the rate of respiration by 50%)” value (laboratory mice) read?
Answer: 70 mL/m^3

Question: What about the “IC50 (%)” value (LMH cells [3]) of the same compound?
Answer: 0.06%

Question: And the IC80 (LMH cells [3])?
Answer: 0.04% and 0.04 * %

Question: And the “Viability of LMH Cells (%) ± SD” value (LMH cells [3])?
Answer: 20.5 ± 0.1 %

Question: And the cytotoxicity (LMH cells [3])?
Answer: above 80%
